Results published in EP0272929B1, “Enkephalinase for therapeutic use” (GENENTECH, INC., priority 1986, dated 1988).
Like-named read-outs stand apart in the source and are kept apart here.

What was measured:
ferret trachea [1] = conditions: for potentiation of substance P-induced secretion: substance P 10⁻⁶M; for order of potency for stimulation of secretion: each tachykinin 10⁻⁵M
Method: (§1) Mucus secretion from tracheal segments of 36 ferrets was measured using methods described earlier (Borson, D.B. et al., J. Appl. Physiol. 57: 457-466 [1984]). Briefly, after anesthetizing adult male ferrets weighing 1-2 kg with sodium pentobarbital (45-60 mg/kg, ip), the trachea was removed and washed in medium 199/Earles HCO₃ bubbled with 95% O₂ - 5% CO₂ at 38°C. Tracheal segments were mounted in plastic Ussing-type chambers connected to perfusion chambers made of siliconized glass (MRA Inc., Clearwater, Florida). After exposing both sides to medium 199, 0.167 mCi Na₂.³⁵SO₄ was added to the submucosal side. At 15 minute intervals, the medium was drained from the luminal side and replaced with fresh unlabeled medium. Each sample was placed in dialysis tubing (Spectropore no. D1615-1; MW cutoff: 12-14,000) and exhaustively dialyzed with the rest of the samples from the experiment against at least 6 changes of distilled water (4 liters each) containing excess unlabeled SO₄ and sodium azide (10 mg/L) to prevent bacterial degradation of the macromolecules. After dialysis, the bound radioactivity of each sample was determined using a Beckman Instruments beta counter (model LS 7500). Molecular weight profiles of the materials secreted were determined by first desalting samples using a Sephadex G-50 column, then concentrating carbohydrate-containing molecules on DEAE Sephacel, and determining apparent molecular size under denaturing conditions (4 M guanidine, 10mM 2-mercaptoethanol, 0.1% Triton X-100) using a Sepharose CL-6B column.
(§2) Characteristics of the response to substance P including the time course, concentration dependence, and reproducibility were studied. Tracheal segments from 8 ferrets were incubated in the presence of radiolabel for 3 hours to which were added different concentrations of substance P (10⁻⁹M to 10⁻⁵M; Peninisula Labs, Belmont, CA). […] All treatments were randomized with regard to the site of sampling in the trachea to eliminate systematic bias.
(§3) The effects of endogenous proteinases were studied by incubating at least two tissues from each of 4 ferrets for 30 minutes in medium for 2.5 hours and adding a combination of nine (9) proteinase inhibitors to the submucosal side of each tissue (10 µg/mL each). The inhibitors used included leupeptin, antipain, pepstatin A, thiorphan, substance P₁₋₉ (Growcott, J.W. and Tarpey, A.V. Eur. J. Pharm. 84: 107-109 [1982]) and the angiotensin converting enzyme inhibitor, teprotide (Peninsula labs), aprotonin, BSA, and bacitracin (Sigma). Thirty minutes after addition of inhibitor, substance P (10⁻⁶M) was added to the submucosal side. […] The mean responses to substance P in the presence of inhibitors was compared with the mean responses of two control segments from each of the same animals.
(§4) The concentration-dependence of enkephalinase inhibition was explored by adding thiorphan in different concentrations to different tissues. To determine whether the secretory effect of substance P might be mediated indirectly via the release of endogenous enkephalins, we tested the effects of met-enkephalin (Peninsula Labs) on secretory responses.
(§5) We calculated the flux of bound SO₄ (^JSO₄) from the cpm in the dialyzed samples according to the equation modified from (Corrales, R.J. et al., J. Appl. Physiol. 56: 1076-1082 [1985]): ()^J SO4 (pmol SO4 (/cm)^2 /h) =(((cpm recovered/15 min x 4) x (811 x 10)^6 pmol cold SO4 /5mL))/((0.5 cm)^2 x cpm in 5.0 mL of hot-side medium) [formula]

[2] = system: ferret tracheal smooth muscle; test: Electrical field stimulation-induced contraction of isolated tracheal smooth muscle; format: cell-based; conditions: inhibitor 10⁻⁵ M, 15 min; tachykinins 10⁻⁷ M
Method: (§6) The tracheal rings were connected to strain gauges (Grass FT03) for continuous recording of isometric tension, and the rings were placed between two rectangular platinum electrodes (6 x 40 mm) for electrical field stimulation. The rings were initially stretched to a tension of 20 g for 30 seconds and were then allowed to equilibrate for 1 hour while resting tension was adjusted to 4 g (Skoogh, B-E. et al., J. Appl. Physiol. 53: 253-257 [1982]). During equilibration, the medium was changed every 15 minutes. […] Id.
Increasing concentrations of leu-thiorphan (10⁻¹¹ to 10⁻⁴ M) were added and the stimuli repeated to determine whether leu-thiorphan modulated electrical field stimulation-induced contractions. […] After determining control responses to electrical field stimulation (5 Hz), leu-thiorphan (10⁻⁵ M; 15 min) was added, the stimulus repeated, (DPro²,DTrp^7,9)substance P, the substance P antagonist (10⁻⁵ M; 15 min; Peninisula Labs) was added, and the stimulus was repeated.
(§7) Data were expressed as mean ± SE. For the dose-response curves to tachykinins the means between two groups at each concentration were analyzed by an unpaired t test. For the study of electrical field stimulation, responses were compared by one way analysis of variance and Newman-Keuls multiple range test. Significance was accepted at p<0.05.

ferret trachea [3] = test: Mucus secretion from ferret tracheal segments in Ussing-type chambers (release of 35SO4-labeled macromolecules, flux of bound SO4); format: cell-based; conditions: for potentiation of substance P-induced secretion: 10 µg/ml each, bestatin 10⁻⁵M (Fig. 4)
Method: as §1, §2, §3, §4, §5

neutrophils = test: Neutrophil chemotaxis assay (Chemotaxis kit, 5 µm filter); format: cell-based; conditions: Homo sapiens, Formyl Met-Leu-Phe 1µM + inhibitor 10µM, 1 hr at 37°C, read-out: Neutrophil Migration (% control)
Method: As assay was used to test the effects of enkephalinase on neutrophil chemotaxis. A commercially available chemotactic assay (Chemotaxis kit, Neuroprobe, Cabin John, Md) was used and modified as described below. Neutrophils were isolated by sedimentation over dextran from peripheral blood of human donors. A sample of neutrophils is placed over a 5 µm filter in a chemotaxis chamber containing aliquots of test material. Three to six replicates were run for each test for 1 hr. at 37°C. The number of migrating neutrophils in each chamber is then counted. The chemotactic potential is evaluated by the number of cells in five selected unit areas.
Various specific inhibitors of enkephalinase were used to determine the role of enkephalinase in chemotaxis of neutrophils. Chemotactic activity is reported as the total number of neutrophils observed in five fields of the kit membrane under 100X magnification. Thus, the larger the number the more chemotactic was a particular test composition.

[4] = system: ferret tracheal smooth muscle; test: Isometric tension of isolated tracheal smooth muscle rings (contraction by peptides, effect of inhibitors); format: cell-based
Method: (§8) Twenty-seven ferrets were anesthetized with pentobarbital sodium (45-60 mg/kg, i.p.), and the trachea were removed. Transverse rings (8 mm long) were cut from the trachea and mounted in glass chambers filled with 14 ml of Krebs-Henseleit solution of the following composition (in mMoles/L): NaCl 118, KCl 5.9, CaCl₂ 2.5, MgSO₄ 1.2, NaH₂PO4 1.2, NaHCO₃ 25.5, glucose 5.6, 0.1% bovine serum albumin, and penicillin-streptomycin (100 Units/ml). The soluiton was maintained at 37°C and was aerated continuously in a mixture of 95% O₂-5% CO₂, which produced a pH of 7.4. Six tracheal rings were studied concurrently.
as §6
The responsiveness to substance P (using concentrations ranging from 10⁻⁸ M to 10⁻⁵ M) and to leu-thiorphan and cumulative dose-response curves to substance P (Peninsula Labs) were obtained. Each succeeding concentration of substance P was added after contraction reached a plateau. After completion of the first dose-response curve to substance P, leu-thiorphan (10⁻⁵ M, Squibb Pharmaceutical) was added to the organ bath. Following a 15 minute incubation, a second dose-response curve to substance P was obtained.
The N-terminal fragment, substance P₁₋₉ was studied because enkephalinase cleaves substance P between the 9 and 10 positions (Matsas, R. et al., Proc. Natl. Acad. Sci. [USA] 80: 3111-3115 [1983]), generating that fragment. (10⁻⁵ M Peninsula Labs). Experiments were also carried out with (DPro², DTrp^7,9)-substance P (10⁻⁵ M) (Peninsula Labs), a substance P antagonist (Hakanson, R. et al., Br. J. Pharmac. 77: 697-700 [1982]) by adding the antagonist after the response to substance P (10⁻⁶ M) and leu-thiorphan (10⁻⁵ M) reached a plateau.
as §7, with “substance P,” for “tachykinins”, “compared” for “analyzed”, “a paired” for “an unpaired”, “studies” for “study”, “P < 0.05. […]” for “p<0.05.”

[5] = system: ferret tracheal smooth muscle; test: as above; format: cell-based; remark: listed apart in the source
Method: as §8
as §6, with “Id. […]” for “Id.”
The methods used to excise tracheal tissue, mount and electrically stimulate the tissue were identical to those described above. The responses to tachykinins and to leu-thiorphan, cumulative dose-response curves to substance P (Peninsula Labs), neurokinin A (Peninisula Labs) and neurokinin B (Peninsula Labs) were obtained using concentrations ranging from 10⁻¹¹ M to 10⁻⁵ M in the presence and absence of leu-thiorphan (10⁻⁵ M, 15 min; Squibb Pharmaceutical). Each succeeding concentration of tachykinin was added after the previous contraction had reached a plateau.
as §7
The methods used were the same as those described in Example 7.

[6] = inhibitor 10⁻⁴M, substance P 10⁻⁶M
[7] = presence of phosphoramidon 10⁻⁵M

**Q.** For bacitracin, which “potentiation of substance P-induced secretion” value (ferret trachea [1]; 10 µg/ml each, bestatin 10⁻⁵M (Fig. 4)) is on record?
**A.** failed to potentiate substance P-induced secretion

**Q.** Which “potentiation of the response to electrical field stimulation in the presence of substance P, neurokinin A or neurokinin B” value [2] does the source give for `CC(=O)N[C@@H](CC(C)C)C(=O)N[C@@H](CC(C)C)C(=O)N[C@H](C=O)CCCNC(=N)N` [leupeptin] here?
**A.** did not

**Q.** And the “potentiation of substance P-induced secretion” value (ferret trachea [3]; substance P 10⁻⁶M)?
**A.** failed to potentiate substance P-induced secretion

**Q.** How did the “increase in flux of bound SO₄ by the inhibitor by itself” value (ferret trachea [3]; 10⁻⁴M, submucosal side) turn out when `O=C(O)CNC(=O)C(CS)Cc1ccccc1` (centres unmarked) [thiorphan] was run?
**A.** 57 ± 17.8 pmol bound SO₄/cm²/h

**Q.** What about the minimal effective concentration (ferret trachea [3]; Mustela putorius, substance P 10⁻⁶M, read-out: threshold of potentiation of the secretory response to substance P) of the same compound?
**A.** ~0.01 µM

**Q.** What about the “response to substance P, % of control” value (ferret trachea [3]; [6]) of the same compound?
**A.** 502 ± 147%

**Q.** And the “substance P-induced increase in flux of bound SO₄ in inhibitor-pretreated tissue” value (ferret trachea [3]; [6])?
**A.** 268.0 ± 58.0 pmol/cm²/h

**Q.** And the “sum of the individual effects as % of the response to substance P in the presence of the inhibitor” value (ferret trachea [3]; test of additivity)?
**A.** 51%

**Q.** And the “sum of the individual effects of substance P and inhibitor” value (ferret trachea [3]; test of additivity)?
**A.** 136.2 pmol bound SO₄/cm²/h

**Q.** What about the activity at 10 µM (neutrophils) of the same compound?
**A.** 29 ± 19%

**Q.** For `CSCC[C@H](NC(=O)[C@H](CC(C)C)NC(=O)CNC(=O)[C@H](Cc1ccccc1)NC(=O)[C@H](Cc1ccccc1)NC(=O)[C@H](CCC(N)=O)NC(=O)[C@H](CCC(N)=O)NC(=O)[C@@H]1CCCN1C(=O)[C@H](CCCCN)NC(=O)[C@@H]1CCCN1C(=O)[C@@H](N)CCCNC(=N)N)C(N)=O` [substance P], which “flux of bound SO₄ above the pre-stimulus baseline” value (ferret trachea [1]; 10 µM) is on record?
**A.** 155 ± 42%

**Q.** With `CC(C)C[C@H](NC(=O)[C@@H](O)[C@H](N)Cc1ccccc1)C(=O)O` [bestatin] as the compound, how does the “potentiation of the response to electrical field stimulation in the presence of substance P, neurokinin A or neurokinin B” value [2] read?
**A.** did not

**Q.** What about the “potentiation of substance P-induced secretion” value (ferret trachea [3]; substance P 10⁻⁶M) of the same compound?
**A.** failed to potentiate substance P-induced secretion

**Q.** How did the “potentiation of substance P-induced secretion” value (ferret trachea [1]; inhibitor 10⁻⁴M (Fig. 4), not significantly different from control) turn out when teprotide was run?
**A.** 49 ± 39%

**Q.** Which “potentiation of the response to electrical field stimulation in the presence of substance P, neurokinin A or neurokinin B” value [2] does the source give for `C[C@H](CS)C(=O)N1CCC[C@H]1C(=O)O` [captopril] here?
**A.** did not

**Q.** What about the activation at 100 µM (ferret trachea [3]; Mustela putorius, inhibitor 10⁻⁴M (Fig. 4), substance P 10⁻⁶M, not significantly different from control, read-out: potentiation of substance P-induced secretion) of the same compound?
**A.** 44 ± 27%

**Q.** `CN1[C@@H]2CC[C@H]1C[C@@H](OC(=O)C(CO)c1ccccc1)C2` (some centres unmarked) [atropine] was tested. Which “effect on SP plus leu-thiorphan-induced contractions” value [4] did it give?
**A.** decreased SP plus leu-thiorphan-induced contractions significantly

**Q.** Which “effect on secretory responses to each tachykinin” value (ferret trachea [3]; 10⁻⁵M, 30 min pretreatment, tachykinins 10⁻⁵M) does the source give for `CC(C)C[C@H](NP(=O)(O)O[C@@H]1O[C@@H](C)[C@H](O)[C@@H](O)[C@H]1O)C(=O)N[C@@H](Cc1c[nH]c2ccccc12)C(=O)O` [phosphoramidon] here?
**A.** significantly increased

**Q.** What about the “substance P-induced increase in flux in inhibitor-treated tissues” value (ferret trachea [3]; inhibitor 10⁻⁵M, substance P 10⁻⁶M) of the same compound?
**A.** 357 ± 91.9 pmol bound SO₄/cm²/h

**Q.** And the activity at 10 µM (neutrophils)?
**A.** 65%

**Q.** eledoisin was tested. Which “order of potency for stimulation of secretion” value (ferret trachea [1]; absence of phosphoramidon) did it give?
**A.** substance P> physalaemin=eledoisin=kassinin > neurokinin A

**Q.** And the “order of potency for stimulation of secretion” value (ferret trachea [1]; [7])?
**A.** Substance P=neurokinin A=physalaemin=eledoisin=kassinin>neurokinin B

**Q.** What does the source list for kassinin?
**A.** order of potency for stimulation of secretion (ferret trachea [1]; absence of phosphoramidon): substance P> physalaemin=eledoisin=kassinin > neurokinin A; order of potency for stimulation of secretion (ferret trachea [1]; [7]): Substance P=neurokinin A=physalaemin=eledoisin=kassinin>neurokinin B

**Q.** What does the source list for physalaemin?
**A.** order of potency for stimulation of secretion (ferret trachea [1]; absence of phosphoramidon): substance P> physalaemin=eledoisin=kassinin > neurokinin A; order of potency for stimulation of secretion (ferret trachea [1]; [7]): Substance P=neurokinin A=physalaemin=eledoisin=kassinin>neurokinin B

**Q.** Which “contraction” value ([5]; 10⁻¹¹ to 10⁻⁵ M) does the source give for “bradykinin (RPPGFSPFR; Bradykinin; UniProt P01042 381-389, looked up)” here?
**A.** caused contraction in a dose-dependent fashion

**Q.** And the relative contractile potency ([5]; absence of enkephalinase inhibitors)?
**A.** more potent that lys-bradykinin

**Q.** What about the relative contractile potency ([5]; presence of Leu-thiorphan) of the same compound?
**A.** equally potent
